Experimental data taken from PMC11984877, “Carnosic Acid Directly Targets STING C‐Terminal Tail to Improve STING‐Mediated Inflammatory Diseases” (Advanced Science, 2025).

Key:
[1] = molecular target: T1, STING (stimulator of interferon genes) (Homo sapiens, UniProt Q86WV6); assay: SPR (Biacore T200); also carnosol-sepharose pull-down; format: binding; set-up: gene STING1; purified human STING protein (TP308418, OriGene)
[2] = molecular target: T1, STING (stimulator of interferon genes); assay: SPR (Biacore T200); also MST (KD […]) and CA-sepharose pull-down competed by free CA; format: binding; set-up: gene STING1; purified soluble human STING protein (TP308418, OriGene)

T1 sequence (Q86WV6 whole entry): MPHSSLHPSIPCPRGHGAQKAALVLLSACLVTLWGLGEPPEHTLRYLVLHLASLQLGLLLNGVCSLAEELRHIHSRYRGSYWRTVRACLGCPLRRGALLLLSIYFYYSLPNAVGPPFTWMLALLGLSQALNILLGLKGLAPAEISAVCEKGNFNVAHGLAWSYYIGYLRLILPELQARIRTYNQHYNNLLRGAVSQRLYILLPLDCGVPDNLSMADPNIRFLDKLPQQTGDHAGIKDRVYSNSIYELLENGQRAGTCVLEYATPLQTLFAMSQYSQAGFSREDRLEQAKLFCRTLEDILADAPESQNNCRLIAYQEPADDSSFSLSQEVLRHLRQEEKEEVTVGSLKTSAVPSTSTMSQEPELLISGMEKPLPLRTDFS

Kd [1]	Structure (SMILES)	Kd [2]
1.07 µM	CC(C)c1cc2c(c(O)c1O)[C@@]13CCCC(C)(C)[C@@H]1C[C@@H]2OC3=O [carnosol]	–
–	CC(C)c1cc2c(c(O)c1O)[C@@]1(C(=O)O)CCCC(C)(C)[C@@H]1CC2 [CA, carnosic acid]	3.17 µM
